How the values were obtained:
[1] = target: T1, G1 APOL1 (Homo sapiens, UniProt O14791, I384M/S342G); experiment: Acute APOL1 Thallium Assay with Inducible Stable Clones of HEK 293 Cells; format: cell-based; details: HEK 293 inducible stable clones, G1 APOL1; read-out: Thallium Assay (IC50)
T1 construct: expressed in transfected cells
T1 sequence (O14791 28-398 S342G/I384M): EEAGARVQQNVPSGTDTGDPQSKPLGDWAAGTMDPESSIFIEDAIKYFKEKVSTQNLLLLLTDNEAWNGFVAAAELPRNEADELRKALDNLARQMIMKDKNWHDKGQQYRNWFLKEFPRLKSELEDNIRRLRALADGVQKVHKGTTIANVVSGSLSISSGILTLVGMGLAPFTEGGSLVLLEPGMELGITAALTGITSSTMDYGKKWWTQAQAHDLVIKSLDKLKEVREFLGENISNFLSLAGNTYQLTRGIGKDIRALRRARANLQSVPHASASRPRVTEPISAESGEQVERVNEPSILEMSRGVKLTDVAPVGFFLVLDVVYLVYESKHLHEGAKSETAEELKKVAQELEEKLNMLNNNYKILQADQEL
Method in brief: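 HEK293 T-Rex cells with a stable tetracycline-inducible G1 APOL1 construct (clone DC3.25) were induced with tetracycline at plating, 26000 cells per well, then incubated at 37° C. They were loaded with an AM-ester thallium-sensitive dye and stimulated with Tl+. The fluorescence rise measured Tl+ influx through APOL1 pores.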

[2] = target: T2, APOL1 G1 Protein (Homo sapiens, UniProt O14791, I384M/S342G); experiment: Trypanosoma brucei brucei Lysis Assay Using APOL1 Recombinant Protein (AlamarBlue viability); format: cell-based; details: read-out: Trypanosomal Assay (IC50)
T2 sequence (O14791 28-398 S342G/I384M): T1 sequence (O14791 28-398 S342G/I384M)
Method in brief: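 Lister 427 bloodstream-form trypanosomes seeded at 120,000 per well in phenol-red-free, serum-free medium and lysed with recombinant APOL1 variant protein. Viability read by AlamarBlue (resazurin) fluorescence. Percent viability relative to untreated wells, interpolated from a standard curve of seeded parasites.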

Row | IC50 [1] [nM] | SMILES | IC50 [2] [nM]
1 | < 250 | CC(=O)NCCCc1c(-c2ccc(F)cc2)[nH]c2c(F)cc(F)cc12 [Compound 505, N-[3-[5,7-difluoro-2-(4-fluorophenyl)-1H-indol-3-yl]propyl]acetamide] | 250 to 1000
2 | 250 to 1000 | O=C(NCCCc1c(-c2ccc(F)cc2)[nH]c2ccc(F)cc12)C(F)F [Compound 506] | 250 to 1000
3 | 250 to 1000 | CC(=O)NCCCc1c(-c2ccc(F)cc2)[nH]c2c(Cl)cccc12 [Compound 508, N-[3-[7-chloro-2-(4-fluorophenyl)-1H-indol-3-yl]propyl]acetamide] | 250 to 1000
4 | < 250 | CC(=O)NCCSc1c(-c2ccc(F)cc2)[nH]c2c(F)cc(F)cc12 [Compound 509, N-[2-[[5,7-difluoro-2-(4-fluorophenyl)-1H-indol-3-yl]sulfanyl]ethyl]acetamide] | < 250
5 | 250 to 1000 | CC(=O)NCCSc1c(-c2ccc(F)cc2)[nH]c2ccccc12 [Compound 510, N-[2-[[2-(4-fluorophenyl)-1H-indol-3-yl]sulfanyl]ethyl]acetamide] | 250 to 1000
6 | < 250 | NCCCCc1c(-c2ccc(F)cc2)[nH]c2c(F)cc(F)cc12 [Compound 511, 4-[5,7-difluoro-2-(4-fluorophenyl)-1H-indol-3-yl]butan-1-amine] | < 250
7 | 250 to 1000 | CC(=O)NCCCCc1c(-c2ccc(F)cc2)[nH]c2c(F)cc(F)cc12 [Compound 512, N-[4-[5,7-difluoro-2-(4-fluorophenyl)-1H-indol-3-yl]butyl]acetamide] | 250 to 1000
8 | 250 to 1000 | CC(=O)NCC(F)(F)Cc1c(-c2ccc(F)cc2)[nH]c2c(F)cc(F)cc12 [Compound 515, N-[3-[5,7-difluoro-2-(4-fluorophenyl)-1H-indol-3-yl]-2,2-difluoro-propyl]acetamide] | 250 to 1000
9 | < 250 | OCCCc1c(-c2ccc(F)cc2)[nH]c2c(F)cc(F)cc12 [Compound 517, 3-[5,7-difluoro-2-(4-fluorophenyl)-1H-indol-3-yl]propan-1-ol] | < 250
10 | < 250 | O=C(/C=C/c1c(-c2ccc(F)cc2)[nH]c2c(F)cc(F)cc12)N[C@@H]1C(=O)NC[C@H]1O [Compound 518, (E)-3-[5,7-difluoro-2-(4-fluorophenyl)-1H-indol-3-yl]-N-[(3S,4R)-4-hydroxy-2-oxo-pyrrolidin-3-yl]prop-2-enamide] | < 250
11 | > 1000 | Cc1cc(NC(=O)CCc2c(-c3ccc(F)cc3)[nH]c3ccc(F)cc23)no1 [Compound 526] | > 1000
